The nature of this series: Solid form stability at ambient conditions, XRPD. The note with it: sulfate; for transformation of the form at ambient conditions: storage at ambient conditions. The series is classed as physicochemical. The method, then: X-Ray Powder Diffraction patterns were collected on a Bruker D8 diffractometer using Cu Kα radiation (40 kV, 40 mA), 0-20 goniometer, and divergence of V4 and receiving slits, a Ge monochromator and a Lynxeye detector. The instrument is performance checked using a certified Corundum standard (NIST 1976). The software used for data collection was Diffrac Plus XRD Commander v2.6.1 and the data were analysed and presented using Diffrac Plus EVA v13.0.0.2 or v15.0.0.0. Samples were run under ambient conditions as flat plate specimens using powder as received. The sample was gently packed into a cavity cut into polished, zero-background (510) silicon wafer. The sample was rotated in its own plane during analysis. The details of the data collection are: angular range: 2 to 42 °2θ; step size: 0.05 °2θ; collection time: 0.5 s/step. Amorphous material (˜60 mg) was generated as in Procedure 1. The amorphous material was suspended in different solvent systems (3 mL) at 50° C. A sample was withdrawn after 3 h and 24 h. The final product was filtered after 48 h and analysed by XRPD. The solids isolated were re-analysed again by XRPD after few days at ambient conditions (˜25° C. and ˜40% RH).

Take `O=C1N2C[C@@H](CC[C@H]2c2nnco2)N1OS(=O)(=O)[O-].[Na+]` [Hydrate 2, sodium (2S,5R)-2-(1,3,4-oxadiazol-2-yl)-7-oxo-1,6-diazabicyclo[3.2.1]octan-6-yl sulfate]: the “stability of the form (Summary of Forms, Description)” value (“stability of the form” for short) is reported as “Metastable, hexa-hydrate”. On the same count and under the same terms, as for `O=C1N2C[C@@H](CC[C@H]2c2nnco2)N1OS(=O)(=O)[O-].[Na+]` [Hydrate 7, sodium (2S,5R)-2-(1,3,4-oxadiazol-2-yl)-7-oxo-1,6-diazabicyclo[3.2.1]octan-6-yl sulfate], the entry is “Metastable, only isolated as a mixture”. Regarding `O=C1N2C[C@@H](CC[C@H]2c2nnco2)N1OS(=O)(=O)[O-].[Na+]` [Hydrate 3, sodium (2S,5R)-2-(1,3,4-oxadiazol-2-yl)-7-oxo-1,6-diazabicyclo[3.2.1]octan-6-yl sulfate], the “transformation of the form at ambient conditions” value (“transformation of the form” below) was “metastable and transform to Hydrate 5 or Hydrate 1”; the “stability of the form” value is “Metastable, suspected mono-hydrate”. For the compound `O=C1N2C[C@@H](CC[C@H]2c2nnco2)N1OS(=O)(=O)[O-].[Na+]` [Hydrate 6, sodium (2S,5R)-2-(1,3,4-oxadiazol-2-yl)-7-oxo-1,6-diazabicyclo[3.2.1]octan-6-yl sulfate], the “transformation of the form” value is “metastable and transform to Hydrate 5 or Hydrate 1”; the “stability of the form” value is “Metastable, suspected mono-hydrate,”.

Turning to `O=C1N2C[C@@H](CC[C@H]2c2nnco2)N1OS(=O)(=O)[O-].[Na+]` [Hydrate 5, sodium (2S,5R)-2-(1,3,4-oxadiazol-2-yl)-7-oxo-1,6-diazabicyclo[3.2.1]octan-6-yl sulfate], the “stability of the form” value was “Metastable, di-hydrate”. Consider `O=C1N2C[C@@H](CC[C@H]2c2nnco2)N1OS(=O)(=O)[O-].[Na+]` [Hydrate 4, sodium (2S,5R)-2-(1,3,4-oxadiazol-2-yl)-7-oxo-1,6-diazabicyclo[3.2.1]octan-6-yl sulfate], for which the “transformation of the form” value was “metastable and transforms to Hydrate 1”; the “stability of the form” value is reported as “Metastable, suspected hemi-hydrate”.
